According to EP0017679B1, “Pyridylalkylpyrimidone compounds, process for preparing them and pharmaceutical compositions containing them” (SMITH KLINE & FRENCH LABORATORIES LIMITED, priority 1979, dated 1980):

These compounds were tested on mice (assay: acute toxicity (LD50) after bolus intravenous administration). Details: ratio to the analogue lacking the 6-substituent (or 5- and 6-substituents) in the pyridyl group.
Type: in vivo
Description: The compounds of Structure (2) have particularly good histamine H,- and H2- antagonist activity and are less acutely toxic in mice (when administered intravenously) than the corresponding compounds of Structure (2) in which R is hydrogen. This decrease in acute toxicity is in general is not accompanied by a reduction in histamine H1-antagonist activity or histamine H2-antagonist activity. […] (LD50 is the minimum dose which kills 50% of mice after bolus intravenous administration of the test compound).
In the case of `Cc1ccc(Cc2cnc(NCCSCc3nc[nH]c3C)[nH]c2=O)cn1` [Example 2, 2-[2-(5-methyl-4-imidazolylmethylthio)ethylamino]-5-(6-methyl-3-pyridylmethyl)-4-pyrimidone], the “LD50 value compared with the corresponding 5-(3-pyridylmethyl) analogue” value was “at least three”.
For `Cc1ccc(Cc2cnc(NCCSCc3nccs3)[nH]c2=O)cn1` [Example 9, 2-[2-(2-thiazolylmethylthio)ethylamino]-5-(6-methyl-3-pyridylmethyl)-4-pyrimidone], the “LD50 value compared with the corresponding 5-(3-pyridylmethyl) analogue” value was “at least three”.
For `Cc1ccc(Cc2cnc(NCCCCc3ncccc3Cl)[nH]c2=O)cn1` [Example 7, 2-[4-(3-chloro-2-pyridyl)butylamino]-5-(6-methyl-3-pyridyImethyl)-4-pyrimidone], the “LD50 value compared with the corresponding 5-(3-pyridylmethyl) analogue” value was “at least three”.
In the case of `COc1ccc(Cc2cnc(NCCSCc3nc[nH]c3C)[nH]c2=O)cn1` [Example 13, 2-[2-(5-methyl-4-imidazolylmethylthio)ethylamino]-5-(6-methoxy-3-pyridyImethyl)-4-pyrimidone], the “LD50 value compared with the corresponding 5-(3-pyridylmethyl) analogue” value was “at least three”.
For `COc1cccnc1CCCCNc1ncc(Cc2ccc(C)nc2)c(=O)[nH]1` [Example 1, 2-[4-(3-methoxy-2-pyridyl)butylamino]-5-(6-methyl-3-pyridylmethyl)-4-pyrimidone], the “LD50 value compared with the corresponding 5-(3-pyridylmethyl) analogue” value was “at least three”.
With `Cc1cc(Cc2cnc(NCCSCc3ncccc3Br)[nH]c2=O)cnc1C` [Example 11, 2-[2-(3-bromo-2-pyridylmethylthio)ethylamino]-5-(5,6-dimethyl-3-pyridylmethyl)-4-pyrimidone] the “LD50 value compared with the corresponding 5-(3-pyridylmethyl) analogue” value was “at least three”.
